± gives the expanded uncertainty stated by the source.
Conditions: Liquid, Vibrating tube method

CCC(C)O (stereo not drawn) [butan-2-ol]
Conditions	mass density [kg/m3]
303.15 K, 20032 kPa	813.3 ± 0.9
303.15 K, 21980 kPa	814.6 ± 0.9
303.15 K, 25089 kPa	816.7 ± 0.9
303.15 K, 27989 kPa	818.6 ± 0.9
303.15 K, 30014 kPa	819.9 ± 0.9
303.15 K, 32951 kPa	821.7 ± 0.9
303.15 K, 33007 kPa	821.7 ± 0.9
303.15 K, 33998 kPa	822.3 ± 0.9
303.15 K, 38048 kPa	824.8 ± 0.9
303.15 K, 40020 kPa	826 ± 0.9
303.15 K, 42004 kPa	827.1 ± 0.9
303.15 K, 44999 kPa	828.9 ± 0.9
303.15 K, 45386 kPa	829.1 ± 0.9
303.15 K, 48182 kPa	830.7 ± 0.9
303.15 K, 50063 kPa	831.8 ± 1
303.15 K, 51975 kPa	832.8 ± 1
303.16 K, 469 kPa	798.5 ± 0.8
303.16 K, 7034 kPa	803.7 ± 0.8
303.16 K, 9943 kPa	806 ± 0.9
303.16 K, 11919 kPa	807.5 ± 0.9
303.16 K, 15070 kPa	809.8 ± 0.9
303.16 K, 31992 kPa	821.1 ± 0.9
303.16 K, 35073 kPa	823 ± 0.9
303.16 K, 55053 kPa	834.5 ± 1
303.16 K, 57971 kPa	836.1 ± 1
303.16 K, 59945 kPa	837.1 ± 1
303.16 K, 62023 kPa	838.2 ± 1
303.16 K, 64910 kPa	839.7 ± 1
303.16 K, 66100 kPa	840.3 ± 1
308.15 K, 99 kPa	793.9 ± 0.8
308.15 K, 284 kPa	794.1 ± 0.8
308.15 K, 499 kPa	794.3 ± 0.8
308.15 K, 1030 kPa	794.8 ± 0.8
308.15 K, 2012 kPa	795.6 ± 0.8
308.15 K, 3016 kPa	796.4 ± 0.8
308.15 K, 10011 kPa	802 ± 0.9
308.15 K, 17937 kPa	808 ± 0.9
308.15 K, 31948 kPa	817.5 ± 0.9
308.15 K, 32957 kPa	818.2 ± 0.9
308.15 K, 33017 kPa	818.2 ± 0.9
308.15 K, 34003 kPa	818.8 ± 0.9
308.15 K, 38001 kPa	821.3 ± 0.9
308.15 K, 45022 kPa	825.5 ± 0.9
308.15 K, 50010 kPa	828.4 ± 1
308.15 K, 52016 kPa	829.5 ± 1
308.15 K, 54994 kPa	831.2 ± 1
308.15 K, 58005 kPa	832.8 ± 1
308.15 K, 60029 kPa	833.9 ± 1
308.16 K, 919 kPa	794.6 ± 0.8
308.16 K, 5009 kPa	798.1 ± 0.8
308.16 K, 7020 kPa	799.7 ± 0.8
308.16 K, 9036 kPa	801.3 ± 0.8
308.16 K, 11963 kPa	803.6 ± 0.9
308.16 K, 15014 kPa	805.8 ± 0.9
308.16 K, 19942 kPa	809.4 ± 0.9
308.16 K, 22125 kPa	810.9 ± 0.9
308.16 K, 25007 kPa	813 ± 0.9
308.16 K, 28001 kPa	815 ± 0.9
308.16 K, 30046 kPa	816.3 ± 0.9
308.16 K, 35061 kPa	819.4 ± 0.9
308.16 K, 40051 kPa	822.5 ± 0.9
308.16 K, 41974 kPa	823.7 ± 0.9
308.16 K, 47997 kPa	827.2 ± 0.9
308.16 K, 61986 kPa	835 ± 1
308.16 K, 64977 kPa	836.6 ± 1
308.16 K, 66129 kPa	837.2 ± 1
313.15 K, 97 kPa	789.4 ± 0.8
313.15 K, 331 kPa	789.6 ± 0.8
313.15 K, 521 kPa	789.8 ± 0.8
313.15 K, 925 kPa	790.2 ± 0.8
313.15 K, 1936 kPa	791 ± 0.8
313.15 K, 2964 kPa	791.9 ± 0.8
313.15 K, 10109 kPa	797.8 ± 0.9
313.15 K, 12051 kPa	799.4 ± 0.9
313.15 K, 22039 kPa	806.9 ± 0.9
313.15 K, 24988 kPa	809 ± 0.9
313.15 K, 27962 kPa	811 ± 0.9
313.15 K, 30012 kPa	812.4 ± 0.9
313.15 K, 32043 kPa	813.7 ± 0.9
313.15 K, 33039 kPa	814.4 ± 0.9
313.15 K, 33084 kPa	814.4 ± 0.9
313.15 K, 37907 kPa	817.5 ± 0.9
313.15 K, 42039 kPa	820 ± 0.9
313.15 K, 50005 kPa	824.8 ± 1
313.15 K, 58031 kPa	829.3 ± 1
313.16 K, 1053 kPa	790.3 ± 0.8
313.16 K, 5002 kPa	793.7 ± 0.8
313.16 K, 6986 kPa	795.3 ± 0.8
313.16 K, 8976 kPa	797 ± 0.8
313.16 K, 14996 kPa	801.7 ± 0.9
313.16 K, 17980 kPa	803.9 ± 0.9
313.16 K, 20012 kPa	805.4 ± 0.9
313.16 K, 34096 kPa	815 ± 0.9
313.16 K, 35045 kPa	815.6 ± 0.9
313.16 K, 40135 kPa	818.9 ± 0.9
313.16 K, 45006 kPa	821.8 ± 0.9
313.16 K, 48081 kPa	823.7 ± 1
313.16 K, 52025 kPa	826 ± 1
313.16 K, 55030 kPa	827.7 ± 1
313.16 K, 60001 kPa	830.4 ± 1
313.16 K, 62068 kPa	831.6 ± 1
313.16 K, 65053 kPa	833.2 ± 1
313.16 K, 66058 kPa	833.7 ± 1
318.15 K, 102 kPa	784.8 ± 0.8
318.15 K, 288 kPa	785 ± 0.8
318.15 K, 909 kPa	785.5 ± 0.8
318.15 K, 9293 kPa	792.8 ± 0.9
318.15 K, 12039 kPa	795.1 ± 0.9
318.15 K, 14977 kPa	797.4 ± 0.9
318.15 K, 17998 kPa	799.8 ± 0.9
318.15 K, 20024 kPa	801.3 ± 0.9
318.15 K, 24907 kPa	804.9 ± 0.9
318.15 K, 27973 kPa	807.1 ± 0.9
318.15 K, 30001 kPa	808.5 ± 0.9
318.15 K, 32873 kPa	810.4 ± 0.9
318.15 K, 33033 kPa	810.4 ± 0.9
318.15 K, 45210 kPa	818.3 ± 0.9
318.15 K, 48072 kPa	820.1 ± 1
318.15 K, 49996 kPa	821.2 ± 1
318.15 K, 57926 kPa	825.8 ± 1
318.16 K, 476 kPa	785.1 ± 0.8
318.16 K, 1004 kPa	785.6 ± 0.8
318.16 K, 1987 kPa	786.5 ± 0.8
318.16 K, 3033 kPa	787.4 ± 0.8
318.16 K, 5011 kPa	789.2 ± 0.8
318.16 K, 6978 kPa	790.9 ± 0.8
318.16 K, 10006 kPa	793.4 ± 0.9
318.16 K, 22040 kPa	802.8 ± 0.9
318.16 K, 32063 kPa	809.9 ± 0.9
318.16 K, 33988 kPa	811.1 ± 0.9
318.16 K, 34997 kPa	811.8 ± 0.9
318.16 K, 38029 kPa	813.7 ± 0.9
318.16 K, 39963 kPa	815 ± 0.9
318.16 K, 42133 kPa	816.4 ± 0.9
318.16 K, 51984 kPa	822.4 ± 1
318.16 K, 54987 kPa	824.1 ± 1
318.16 K, 60004 kPa	827 ± 1
318.16 K, 62005 kPa	828.1 ± 1
318.16 K, 65012 kPa	829.7 ± 1
318.16 K, 66081 kPa	830.3 ± 1
323.15 K, 539 kPa	780.5 ± 0.8
323.15 K, 1027 kPa	781 ± 0.8
323.15 K, 5007 kPa	784.7 ± 0.8
323.15 K, 7056 kPa	786.5 ± 0.8
323.15 K, 9085 kPa	788.3 ± 0.9
323.15 K, 10245 kPa	789.3 ± 0.9
323.15 K, 12118 kPa	790.8 ± 0.9
323.15 K, 15027 kPa	793.2 ± 0.9
323.15 K, 18033 kPa	795.6 ± 0.9
323.15 K, 20133 kPa	797.2 ± 0.9
323.15 K, 25015 kPa	800.9 ± 0.9
323.15 K, 28096 kPa	803.1 ± 0.9
323.15 K, 33113 kPa	806.7 ± 0.9
323.15 K, 37980 kPa	809.9 ± 0.9
323.15 K, 40058 kPa	811.2 ± 0.9
323.15 K, 42026 kPa	812.5 ± 0.9
323.15 K, 50034 kPa	817.5 ± 1
323.15 K, 52055 kPa	818.7 ± 1
